Data from publication PMC6191125, “Peptidoglycan potentiates the membrane disrupting effect of the carboxyamidated form of DMS-DA6, a Gram-positive selective antimicrobial peptide isolated from Pachymedusa dacnicolor skin” (PLoS ONE, 2018).
Converted amounts (≈) assume the structure as drawn. Residues, ends and D or L forms follow the SMILES beside them.

Legend:
E. faecium BM 4147 = format: cell-based, Enterococcus faecium; settings: E. faecium BM 4147, multi-resistant strain
From the text: (§1) Gram-negative bacterial strains, Escherichia coli ATCC 8739, Escherichia coli ATCC 35218, Escherichia coli ML 35p, Escherichia coli K12, Pseudomonas aeruginosa ATCC 27853, and Gram-positive bacterial strains, Enterococcus faecalis ATCC29212, Kocuria rhizophila ATCC 9341, Staphylococcus aureus ATCC 6538, Staphylococcus aureus ATCC 29213, Staphylococcus aureus ST 1065, Staphylococcus epidermidis BM 3302, and Bacillus subtilis subsp. subtilis CIP 52.65, as well as two multiresistant strains (Staphylococcus aureus DAR 5829 (http://www.ncbi.nlm.nih.gov/bioproject/228435) and Enterococcus faecium BM 4147 [20] were cultured as described previously. The minimal inhibitory concentration (MIC) of the peptides was determined by the microtiter broth dilution method. Overnight precultures were subcultured in Luria Bertani (LB) medium at 37°C with vigorous shaking until mid-log phase (~2h) and diluted to 10^7 cfu/mL. Peptide solutions were prepared at different concentrations (from 2 to 500 μM) by successive 2-fold dilutions in water from 1 mM stock solutions. In each row of a 96-well nonbinding surface plate, 90 μL of bacteria were incubated with 10 μL of peptide solutions for 18 h at 37°C. The final peptide concentrations ranged from 0.2 to 100 μM. Cell growth was evaluated by visual inspection and absorbance at 600 nm to determine the lowest concentration of peptide that prevented cell growth. Wells were either opaque, indicating stationary phase growth, or transparent indicating no growth. The lowest concentration showing no visible growth was considered as the MIC. After measurement of the MIC, the bactericidal activity was determined by the addition of resazurin dye (30 μL, 0.01% w/v) to each well [22]. The plates were further incubated at 37°C for 18 h. Wells in which the dye turned pink indicated live bacteria, whereas wells in which the dye remained blue indicated dead bacteria. The minimal bactericidal concentration (MBC) is the lowest concentration with blue coloration (99.9% of bacteria were killed). Three to five independent assays were performed in triplicate. Positive controls correspond to medium plus 0.2% formaldehyde and negative controls to medium without peptide.

S. aureus ATCC 29213 = format: cell-based, Staphylococcus aureus
From the text: as §1

S. aureus ST 1065 = format: cell-based, Staphylococcus aureus
From the text: as §1

S. aureus ATCC 6538 = format: cell-based, Staphylococcus aureus
From the text: as §1

S. aureus DAR 5829 = format: cell-based, Staphylococcus aureus; settings: S. aureus DAR 5829, multi-resistant strain
From the text: as §1

K. rhizophila ATCC 9341 = format: cell-based, Kocuria rhizophila
From the text: as §1

S. epidermidis BM3302 = format: cell-based, Staphylococcus epidermidis
From the text: as §1

A549 cells = experiment: Cytotoxicity, trypan blue exclusion; format: cell-based; settings: A549 human lung carcinoma cells, 2-hour incubation at 37°C, 5% CO2, concentrations as high as 100 μM; 3 independent experiments in triplicate
Procedure: A549 cells (ATCC CCL-185), a human lung carcinoma cell line, were cultivated at 37°C, humid atmosphere and 5% CO2, in Petri dishes with DMEM Advanced medium (Gibco) supplemented with 5% of fetal bovine serum (FBS), 2 mM of glutamine, 100 U of penicillin and 50 μg/mL of streptomycin (Gibco). When the cells reached 80% confluence, the medium was discarded and the cells were washed with PBS 1×, before being treated with Trypsin 1× for 2 minutes to detach them form the culture dish. Cells were then resuspended in DMEM medium, seeded in a 48-well culture plate (500 000 cells/well), and either form of DMS-DA6 solubilized in PBS 1× was added and incubated for 2 hours at 37°C, 5% CO2. DMSO 30% was used as a positive control to induce cell death, and DMEM medium as negative control. After incubation, cell viability was assessed by trypan blue exclusion.

E. coli K12 = format: cell-based, Escherichia coli; settings: LB, 10^7 cfu/mL, 18 h at 37°C, peptide 0.2-100 μM, averaged over >=3 independent experiments in triplicate
From the text: as §1

E. coli ATCC 35218 = format: cell-based, Escherichia coli; settings: LB, 10^7 cfu/mL, 18 h at 37°C, peptide 0.2-100 μM, averaged over >=3 independent experiments in triplicate
From the text: as §1

E. coli ML 35p = format: cell-based, Escherichia coli; settings: LB, 10^7 cfu/mL, 18 h at 37°C, peptide 0.2-100 μM, averaged over >=3 independent experiments in triplicate
From the text: as §1

E. coli ATCC 8739 = format: cell-based, Escherichia coli
From the text: as §1

E. faecalis ATCC 29212 = format: cell-based, Enterococcus faecalis
From the text: as §1

B. subtilis CIP 52.65 = format: cell-based, Bacillus subtilis subsp. subtilis
From the text: as §1

[1] = tested on: Ps. aeruginosa ATCC 27853; format: cell-based, Pseudomonas aeruginosa; settings: LB, 10^7 cfu/mL, 18 h at 37°C, peptide 0.2-100 μM, averaged over >=3 independent experiments in triplicate
From the text: as §1, with “Wells were either opaque, indicating stationary phase growth, or transparent indicating no growth. The lowest concentration showing no visible growth was considered as the MIC. After measurement of the MIC, the bactericidal activity was determined by the addition of resazurin dye (30 μL, 0.01% w/v) to each well [22]. The plates were further incubated at 37°C for 18 h. Wells in which the dye turned pink indicated live bacteria, whereas wells in which the dye remained blue indicated dead bacteria. The minimal bactericidal concentration (MBC) is the lowest concentration with blue coloration (99.9% of bacteria were killed). Three to five independent assays were performed in triplicate. Positive controls correspond to medium plus 0.2% formaldehyde and negative controls to medium without peptide.” left out

[2] = LB, 10^7 cfu/mL, 18 h at 37°C, averaged over >=3 independent experiments in triplicate
[3] = resazurin dye added after MIC, further 18 h at 37°C, 99.9% killed, averaged over >=3 experiments in triplicate

## CC[C@H](C)[C@H](NC(=O)CNC(=O)[C@H](Cc1c[nH]c2ccccc12)NC(=O)[C@@H](NC(=O)CN)C(C)C)C(=O)N[C@@H](C)C(=O)N[C@@H](CCCCN)C(=O)N[C@H](C(=O)N[C@@H](C)C(=O)NCC(=O)N[C@@H](CCCCN)C(=O)N[C@H](C(=O)N[C@@H](CC(C)C)C(=O)NCC(=O)N[C@@H](CC(N)=O)C(=O)N[C@H](C(=O)N[C@@H](CC(C)C)C(=O)N1CCC[C@H]1C(=O)N[C@@H](Cc1c[nH]cn1)C(=O)N[C@H](C(=O)N[C@@H](Cc1ccccc1)C(=O)N[C@@H](CO)C(=O)N[C@@H](CO)C(=O)N[C@@H](CC(N)=O)C(=O)N[C@@H](CCC(N)=O)C(=O)N[C@@H](CO)C(=O)O)C(C)C)[C@@H](C)CC)C(C)C)[C@@H](C)CC [DMS-DA6-OH] (H-GVWGIAKIAGKVLGNILPHVFSSNQS-OH)
E. faecium BM 4147; [2]
  MIC: 50 µM (≈ 135 µg/mL)
E. faecium BM 4147; [3]
  MBC: 100 µM (≈ 269 µg/mL)
S. aureus ATCC 29213; [2]
  MIC: 6.25 µM (≈ 16.8 µg/mL)
S. aureus ATCC 29213; [3]
  MBC: 25 µM (≈ 67.3 µg/mL)
S. aureus ST 1065; [2]
  MIC: 25 µM (≈ 67.3 µg/mL)
S. aureus ST 1065; [3]
  MBC: 25 µM (≈ 67.3 µg/mL)
S. aureus ATCC 6538; [2]
  MIC: 12.5 µM (≈ 33.7 µg/mL)
S. aureus ATCC 6538; [3]
  MBC: 12.5 µM (≈ 33.7 µg/mL)
S. aureus DAR 5829; [2]
  MIC: 50 µM (≈ 135 µg/mL)
S. aureus DAR 5829; [3]
  MBC: 50 µM (≈ 135 µg/mL)
K. rhizophila ATCC 9341; [2]
  MIC: 6.25 µM (≈ 16.8 µg/mL)
K. rhizophila ATCC 9341; [3]
  MBC: 12.5 µM (≈ 33.7 µg/mL)
S. epidermidis BM3302; [2]
  MIC: 25 µM (≈ 67.3 µg/mL)
S. epidermidis BM3302; [3]
  MBC: 25 µM (≈ 67.3 µg/mL)
A549 cells
  death of A549 cells (trypan blue exclusion): neither DMS-DA6-OH (net charge +2) nor DMS-DA6-NH2 (net charge +3) resulted in the death
E. coli K12
  MIC: >100 µM
E. coli ATCC 35218
  MIC: >100 µM
E. coli ML 35p
  MIC: >100 µM
E. coli ATCC 8739; [2]
  MIC: 50 µM (≈ 135 µg/mL)
E. coli ATCC 8739; [3]
  MBC: 100 µM (≈ 269 µg/mL)
E. faecalis ATCC 29212; [2]
  MIC: 100 µM (≈ 269 µg/mL)
E. faecalis ATCC 29212; [3]
  MBC: 100 µM (≈ 269 µg/mL)
B. subtilis CIP 52.65; [2]
  MIC: 12.5 µM (≈ 33.7 µg/mL)
B. subtilis CIP 52.65; [3]
  MBC: 12.5 µM (≈ 33.7 µg/mL)
other
  intact peptide remaining: > 90%
[1]
  MIC: >100 µM
